US20070099828A1, “BIOMARKERS FOR THE EFFICACY OF CALCITONIN AND PARATHYROID HORMONE TREATMENT” (priority 2003, published 2007)
Where “and” joins values, the source holds several entries; their conditions need not be identical. Equal entries are not always repeated.

Experiments:
[1] = cynomolgus monkey, in vivo
Excerpt: Animals. […] Solvent was used as vehicle for the control group.
The animals used in this analysis were cynomolgus monkeys (Macaca fascicularis), supplied by Centre de Recherches Primatologiques, Port Louis, Mauritius. Two animals were used per group and sex. At the beginning of the treatment period, the animals were at least 24 months old, with a body weight of approximately 3 kg. Animals were kept under standard conditions for animal welfare. Animals were examined daily for mortality, food consumption and clinical observations. Body weight was recorded once per week.

[2] = test system: liver, kidney, pituitary, muscle, bone, duodenum, spleen and trachea; set-up: species or system cynomolgus monkeys (Macaca fascicularis); conditions: cynomolgus monkey, in vivo
Description: Tissue sampling. Animals were killed by deep anaesthesia induced by intravenous injection of Pentothal®, followed by exsanguinations. All relevant tissues were sampled for histopathology and gene expression profiling. The following tissue samples were processed for analysis: liver, kidney, pituitary, muscle, bone, duodenum, spleen and trachea. Samples for histopathology were fixed in phosphate-buffered 10% formalin. Bone demineralization was performed with 10% formic acid. Tissue samples were embedded in Paraplast® and sectioned at 4 microns, for staining with haematoxylin and eosin. Samples for gene expression profiling were quickly frozen in liquid nitrogen immediately after excision, stored on dry ice and subsequently in a deep-freezer at approximately −80° C. until further use. All selected tissues for gene expression profiling were examined histopathologically.

Haematology = assay type: in vivo, cynomolgus monkeys (Macaca fascicularis)
Excerpt: (§1) Blood sampling. […] Blood samples were taken from a peripheral vein.

Blood pressure = assay type: in vivo, cynomolgus monkeys (Macaca fascicularis); conditions: for Blood Pressure Difference: Week 2 vs Week-1; for Blood Pressure Week-1: before dosing
[3] = Hormone determinations in serum; assay type: in vivo, cynomolgus monkeys (Macaca fascicularis); conditions: males
Excerpt: as §1

[4] = urine, females, day −8 (pre-dose)

CC(C)C[C@H](NC(=O)[C@H](CCCCN)NC(=O)CNC(=O)[C@H](CC(C)C)NC(=O)[C@@H](NC(=O)[C@@H]1CSSC[C@H](N)C(=O)N[C@@H](CO)C(=O)N[C@@H](CC(N)=O)C(=O)N[C@@H](CC(C)C)C(=O)N[C@@H](CO)C(=O)N[C@@H]([C@@H](C)O)C(=O)N1)C(C)C)C(=O)N[C@@H](CO)C(=O)N[C@@H](CCC(N)=O)C(=O)N[C@@H](CCC(=O)O)C(=O)N[C@@H](CC(C)C)C(=O)N[C@@H](Cc1c[nH]cn1)C(=O)N[C@@H](CCCCN)C(=O)N[C@@H](CC(C)C)C(=O)N[C@@H](CCC(N)=O)C(=O)N[C@H](C(=O)N[C@@H](Cc1ccc(O)cc1)C(=O)N1CCC[C@H]1C(=O)N[C@@H](CCCNC(=N)N)C(=O)N[C@H](C(=O)N[C@@H](CC(N)=O)C(=O)N[C@H](C(=O)NCC(=O)N[C@@H](CO)C(=O)NCC(=O)N[C@H](C(=O)N1CCC[C@H]1C(N)=O)[C@@H](C)O)[C@@H](C)O)[C@@H](C)O)[C@@H](C)O [Salmon Calcitonin]
Food Consumption Avg., Both animals [1]: 72.9
inflammatory and regenerative changes in the kidneys [2]: slightly higher incidence
L (Haematology; females, d 7): 4.61 G/L and 6.21 G/L
MCH (Haematology; females, d 7): 18.6 pg and 19.4 pg
MCV (Haematology; females, d 7): 64 fL and 68 fL
PCV (Haematology; females, d 7): 0.4 l/l and 0.44 l/l
PLAT (Haematology; females, d 7): 594 G/L and 356 G/L
RBC (Haematology; females, d 7): 6.2 T/l and 6.6 T/l
WBC (Haematology; females, d 7): 9.5 G/l and 17 G/l
monocyte count (Haematology; females, d 7): 0.63 G/l and 0.82 G/l
B (Haematology; females, d 13): 0.03 G/L and 0.05 G/L
L (Haematology; females, d 13): 5.18 G/L and 6.58 G/L
MCH (Haematology; females, d 13): 19.5 pg
MCV (Haematology; females, d 13): 64 fL and 65 fL
PCV (Haematology; females, d 13): 0.33 l/l and 0.37 l/l
PLAT (Haematology; females, d 13): 451 G/L and 229 G/L
RBC (Haematology; females, d 13): 5.2 T/l and 5.7 T/l
WBC (Haematology; females, d 13): 12 G/l and 13.3 G/l
monocyte count (Haematology; females, d 13): 0.69 G/l and 0.39 G/l
B (Haematology; females, d −8 (before dosing)): 0.02 G/L and 0.01 G/L
E (Haematology; females, d −8 (before dosing)): 0.03 G/L
L (Haematology; females, d −8 (before dosing)): 3.26 G/L and 4.79 G/L
MCH (Haematology; females, d −8 (before dosing)): 19.1 pg and 19.8 pg
MCV (Haematology; females, d −8 (before dosing)): 61 fL and 65 fL
PCV (Haematology; females, d −8 (before dosing)): 0.4 l/l and 0.45 l/l
PLAT (Haematology; females, d −8 (before dosing)): 549 G/L and 304 G/L
RBC (Haematology; females, d −8 (before dosing)): 6.5 T/l and 7 T/l
WBC (Haematology; females, d −8 (before dosing)): 7 G/l and 8.3 G/l
monocyte count (Haematology; females, d −8 (before dosing)): 0.25 G/l and 0.3 G/l
B (Haematology; males, d 7): 0.04 G/l
E (Haematology; males, d 7): 0.10 G/l and 0.09 G/l
HB (Haematology; males, d 7): 11.7 g/dL and 11.5 g/dL
L (Haematology; males, d 7): 6.79 G/l and 5.57 G/l
M (Haematology; males, d 7): 0.73 G/l and 0.45 G/l
MCH (Haematology; males, d 7): 19.9 pg and 19.2 pg
MCHC (Haematology; males, d 7): 30.3 g/dL and 31.3 g/dL
MCV (Haematology; males, d 7): 66 fL and 62 fL
PCV (Haematology; males, d 7): 0.39 l/l and 0.37 l/l
PLAT (Haematology; males, d 7): 396 G/l and 330 G/l
RBC (Haematology; males, d 7): 5.9 T/l and 6.0 T/l
WBC (Haematology; males, d 7): 11.8 G/l and 9.5 G/l
B (Haematology; males, d 13): 0.03 G/l
HB (Haematology; males, d 13): 11.2 g/dL and 10.3 g/dL
L (Haematology; males, d 13): 5.38 G/l and 4.92 G/l
M (Haematology; males, d 13): 0.57 G/l and 0.76 G/l
MCH (Haematology; males, d 13): 20.2 pg and 19.2 pg
MCHC (Haematology; males, d 13): 29.0 g/dL and 28.7 g/dL
MCV (Haematology; males, d 13): 70 fL and 67 fL
PCV (Haematology; males, d 13): 0.39 l/l and 0.36 l/l
PLAT (Haematology; males, d 13): 302 G/l and 389 G/l
RBC (Haematology; males, d 13): 5.6 T/l and 5.4 T/l
WBC (Haematology; males, d 13): 8.0 G/l and 8.8 G/l
HB (Haematology; males, d −6 (before dosing)): 12.6 g/dL and 13.6 g/dL
L (Haematology; males, d −6 (before dosing)): 4.00 G/l and 6.55 G/l
MCH (Haematology; males, d −6 (before dosing)): 20.2 pg and 19.7 pg
MCHC (Haematology; males, d −6 (before dosing)): 31.4 g/dL and 32.0 g/dL
MCV (Haematology; males, d −6 (before dosing)): 64 fL and 62 fL
PCV (Haematology; males, d −6 (before dosing)): 0.40 l/l and 0.43 l/l
PLAT (Haematology; males, d −6 (before dosing)): 351 G/l and 247 G/l
RBC (Haematology; males, d −6 (before dosing)): 6.3 T/l and 6.9 T/l
WBC (Haematology; males, d −6 (before dosing)): 7.7 G/l and 11.5 G/l
CREAT (urine) (Urinary analysis; males, day 13): 4620 µmol/L and 4400 µmol/L
Ca2+ (urine) (Urinary analysis; males, day 13): 18.25 mmol/L and 23.40 mmol/L
Cl− (urine) (Urinary analysis; males, day 13): 55 mmol/L and 68 mmol/L
I.PHOS (urine) (Urinary analysis; males, day 13): 2.50 mmol/L and 3.00 mmol/L
K+ (urine) (Urinary analysis; males, day 13): 78 mmol/L and 76 mmol/L
Mg2+ (urine) (Urinary analysis; males, day 13): 7.05 mmol/L and 9.80 mmol/L
Na+ (urine) (Urinary analysis; males, day 13): 14 mmol/L and 15 mmol/L
VOLUME (urine) (Urinary analysis; males, day 13): 68 mL and 54 mL
I.PHOS (urine) (Urinary analysis; males, day −6 (before dosing)): 4.35 mmol/L and 5.33 mmol/L
LDH (urine) (Urinary analysis; males, day −6 (before dosing)): 9.0 IU/L and 13.0 IU/L
NAG (urine) (Urinary analysis; males, day −6 (before dosing)): 2.7 IU/l and 4.2 IU/l
VOLUME (urine) (Urinary analysis; males, day −6 (before dosing)): 62 mL and 37 mL
CREAT (Urinary analysis; urine, females, day 13): 4800 µmol/L and 4200 µmol/L
Ca2+ (Urinary analysis; urine, females, day 13): 17.55 mmol/L and 12.70 mmol/L
Cl− (Urinary analysis; urine, females, day 13): 63 mmol/L and 65 mmol/L
I.PHOS (Urinary analysis; urine, females, day 13): 5.1 mmol/L and 5.8 mmol/L
K+ (Urinary analysis; urine, females, day 13): 53 mmol/L and 57 mmol/L
Mg2+ (Urinary analysis; urine, females, day 13): 5.40 mmol/L and 4.85 mmol/L
NAG (Urinary analysis; urine, females, day 13): 2.8 IU/l and 2.7 IU/l
Na+ (Urinary analysis; urine, females, day 13): 40 mmol/L and 32 mmol/L
VOLUME (Urinary analysis; urine, females, day 13 of dosing): 67 mL and 49 mL
CREAT (Urinary analysis; urine, females, day −7 (pre-dose)): 6920 µmol/L and 13380 µmol/L
CREAT (Urinary analysis; [4]): 10780 µmol/L and 11260 µmol/L
Ca2+ (Urinary analysis; [4]): 3.00 mmol/L and 3.50 mmol/L
K+ (Urinary analysis; [4]): 104 mmol/L and 172 mmol/L
Mg2+ (Urinary analysis; [4]): 3.35 mmol/L and 3.80 mmol/L
Na+ (Urinary analysis; [4]): 98 mmol/L and 156 mmol/L
Blood Pressure Week 2 (Blood pressure; Female, first line per animal): 82 mmHg and 44 mmHg
Blood Pressure Difference (Blood pressure; Female, first line per animal): −16 mmHg and −48 mmHg
Blood Pressure Week-1 (Blood pressure; Female, first line per animal): 98 mmHg and 92 mmHg
Blood Pressure Week 2 (Blood pressure; Female, second line per animal): 25 mmHg and 30 mmHg
Blood Pressure Difference (Blood pressure; Female, second line per animal): −25 mmHg and 4 mmHg
Blood Pressure Week-1 (Blood pressure; Female, second line per animal): 50 mmHg and 26 mmHg
Blood Pressure Week 2 (Blood pressure; Male, first line per animal): 99 mmHg and 79 mmHg
Blood Pressure Difference (Blood pressure; Male, first line per animal): −36 mmHg and −23 mmHg
Blood Pressure Week-1 (Blood pressure; Male, first line per animal): 135 mmHg and 102 mmHg
Blood Pressure Week 2 (Blood pressure; Male, second line per animal): 40 mmHg and 35 mmHg
Blood Pressure Difference (Blood pressure; Male, second line per animal): −21 mmHg
Blood Pressure Week-1 (Blood pressure; Male, second line per animal): 61 mmHg and 56 mmHg
ACTH ([3]; day 7): 87 pg/mL and 78 pg/mL
ALDOST ([3]; day 7): 1058 pg/mL and 987 pg/mL
C-PEPTI ([3]; day 7): 1.70 ng/mL and 1.20 ng/mL
CORTISOL ([3]; day 7): 979 nmol/L and 1523 nmol/L
CT ([3]; day 7): 4.0 pg/mL and 2.5 pg/mL
GASTRIN ([3]; day 7): 83 pg/mL and 128 pg/mL
GLUCAG ([3]; day 7): 247 pg/mL and 218 pg/mL
INSULIN ([3]; day 7): 14.0 mU/l and 10.0 mU/l
IPH ([3]; day 7): 75 pg/mL and 62 pg/mL
S.MED ([3]; day 7): 268 ng/mL and 307 ng/mL
T3 ([3]; day 7): 2.35 nmol/L and 1.65 nmol/L
T4 ([3]; day 7): 64 nmol/L and 79 nmol/L
VD25-H ([3]; day 7): 50 nmol/L and 44 nmol/L
ACTH ([3]; day 13): 87 pg/mL and 73 pg/mL
ALDOST ([3]; day 13): 819 pg/mL and 977 pg/mL
C-PEPTI ([3]; day 13): 1.80 ng/mL and 2.30 ng/mL
CORTISOL ([3]; day 13): 1611 nmol/L and 1709 nmol/L
G.H. ([3]; day 13): 16.2 ng/mL and 15.7 ng/mL
GASTRIN ([3]; day 13): 88 pg/mL and 136 pg/mL
GLUCAG ([3]; day 13): 428 pg/mL and 503 pg/mL
INSULIN ([3]; day 13): 17.0 mU/l and 22.0 mU/l
IPH ([3]; day 13): 78 pg/mL and 71 pg/mL
PROLACT ([3]; day 13): 4.6 ng/mL and 6.6 ng/mL
S.MED ([3]; day 13): 332 ng/mL and 384 ng/mL
T3 ([3]; day 13): 2.51 nmol/L and 1.90 nmol/L
T4 ([3]; day 13): 47 nmol/L and 65 nmol/L
VD25-H ([3]; day 13): 49 nmol/L and 45 nmol/L
CORTISOL ([3]; day −6 (pre-dose)): 2316 nmol/L and 1578 nmol/L
CT ([3]; day −6 (pre-dose)): 6.7 pg/mL and 5.1 pg/mL
G.H. ([3]; day −6 (pre-dose)): 11.5 ng/mL and 14.6 ng/mL
GLUCAG ([3]; day −6 (pre-dose)): 905 pg/mL and 869 pg/mL
T3 ([3]; day −6 (pre-dose)): 1.06 nmol/L and 1.48 nmol/L
T4 ([3]; day −6 (pre-dose)): 53 nmol/L and 62 nmol/L
TESTO ([3]; day −6 (pre-dose)): 8.5 nmol/L and 9.5 nmol/L
VD25-H ([3]; day −6 (pre-dose)): 63 nmol/L and 62 nmol/L
ACTH ([3]; day −6 relative to start of dosing (pre-dose)): 98 pg/mL and 115 pg/mL
